Data from patent US20050044581A1, “Animals and cells containing a mutated alpha2/omega1 gene” (priority 2003, published 2005).

Columns and labels:
[1] = system: R217A mutant lines and background strain mice; test: Maximal electroshock procedure (MES); assay type: in vivo, mouse; conditions: for responsiveness to anticonvulsant effects: all background strains, mutant, heterozygous mutant and wildtype (all lines)
Procedure: WT mice were tested at 0.1 mA, HET mice were tested at 0.4 mA and KI mice were tested at 0.7 InA. Each experiment included a no-shock vehicle control group for direct comparison to the concurrent vehicle punished-responding group to determine percent suppression of drinking. […] Sedation was noted by the observer as previously described. […] Electroshock in mice was delivered using corneal electrodes with varied electroshock intensity. Current was delivered (60 Hz sinusoidal current, 11 to 17 mA baseline to peak vs. 50 mA for 0.2 s) using a constant-current stimulator (Wahlquist Instruments, Salt Lake City, Utah). The intensities of current necessary to produce tonic extensor seizures for each mouse strain and mutant lines in all of the mice were determined. These currents were then used for further testing of mice with pregabalin. All dose-response testing was conducted at the previously determined time of peak drug effect. Groups of 10 mice each were give various intraperitoneal doses of pregabalin dissolved in 0.9% saline, diazepam (veh) or phenytoin and given in a volume of 10 ml/kg of body weight. […] At least four groups of mice and each animal was employed once. The animals, pretreated with different doses of the tested drugs, were challenged with one electroshock at previously determined times of peak drug effect (pregabalin: 120 min; diazepam: 60 min; phenytoin; 60 min)

[2] = system: WT, HET and KI R217A mice and parent strains; test: Vogel water-lick conflict; assay type: in vivo, mouse; conditions: for minimally effective dose (MED), Vogel: IP (doses tested in mg/kg); for anxiolytic-like effect / punished licking, Vogel: R217A knockins (homozygous)
Procedure: Two strains used to generate the mutant mice, C57BU6J (Jackson Laboratories), and 129S6/SvEV (Taconic Farms), were also evaluated. Albino or C57BL/6J-Tyr were also included in the experiments for comparison purposes. Male C57BL/6J (Jackson Laboratories), and 129S6/SvEV (Taconic Farms) mice were received at 8 weeks old in quantities sufficient for each study to be completed in one experiment. Parent strains were housed one week prior to testing. All animals were housed in a temperature and humidity controlled room under a 12L: 12D schedule (lights on @06:00 h). All mice were housed in isolators (3-5/cage) with the exception of C57BU6J mice that were housed on wire racks (12/cage).
On the side of each chamber (1.5 in. above the floor) a module optical lickometer was mounted. The lickometer was used to measure licking from a drink tube attached to a water bottle mounted on the exterior of the chamber. A photo beam was piped via glass rods across a gap at the end of the drink tube. The subject's tongue breaks the beam when it drinks from the tube and each lick was automatically recorded. […] The reduced chamber space limited the animal's activity and directed behavior towards the drink tube during a 10-minute session. The front and back of the test chamber was made of clear Plexiglas. The front door was covered to reduce distractions from inside the test room. The back of the test chamber faced a wall, away from the flow of traffic in the testing room, and remained uncovered to provide the opportunity for observations. Shock was delivered between the grid floor and the drink tube using a (Coulbourn) programmable universal shocker for a duration of one second, but terminated immediately when contact between the animal and drink tube was broken.
PROCEDURE: On day one, after 24 hours of water deprivation, experimental subjects were placed in the test chambers and allowed to drink unpunished for a 10-minute training session. Mice were required to complete a 100-150 lick criteria during the training session. Subjects that completed the training criteria prior to the end of the 10-minute session were removed so that drinking was restricted in all subjects to 25% of their total daily intake. […] Immediately after the day one session mice were returned to their home cages and deprived of water and food for an additional 24 hours. On test day two, mice were dosed by intraperitoneal (IP) injection with vehicle or test compound. After a 60 or 120-minute absorption period mice were placed into the test chambers for a 10-minute test session. During the test, shock was delivered on a fixed ratio (FR) 10 schedule. Therefore, after every 10th lick the subject received a mild shock. […] A low number of shock episodes accepted reflects anxiety-related behavior. Standard anxiolytic drugs produce effects that allow mice to overcome the behavioral inhibition and drink despite the shock. […] All data were analyzed using a one-way ANOVA/Dunn's Method.
DRUGS: Pregabalin was dissolved in physiological saline for all experiments. The positive control diazepam was suspended in 2% cremophor in physiological saline. All drugs were dosed in a volume of 10 mL/kg.
C57BL/6J mice were tested at 0.4 mA, C57BL/6J-Tyr mice were tested at 0.1 mA and 129S6/SvEV mice were tested at 0.6 mA. Each dose-response study included a no-shock vehicle control group directly compared to the concurrent vehicle punished-responding group to evaluate the suppression of drinking. […] For all experiments, sedation was noted when both symptoms of ataxia (unsteady gait) and a reduced response to handling were observed after dosing and described as mild, moderate or severe.
WT mice were tested at 0.1 mA, HET mice were tested at 0.4 mA and KI mice were tested at 0.7 InA. Each experiment included a no-shock vehicle control group for direct comparison to the concurrent vehicle punished-responding group to determine percent suppression of drinking.

[3] = system: α2/δ1 in mouse brain membranes; test: 3H gabapentin binding to whole mouse brain membranes, R217A mutant vs wildtype; conditions: R217A mutant mouse in comparison to wildtype mice; tracer 3H gabapentin; FIG. 3
Procedure: Membranes were prepared from whole mouse brains. […] Total binding was determined in the absence of competitor. Non-specific binding was determined in the presence of 10 μM unlabeled pregabalin.

[4] = system: α2/δ1 R217A wild type, heterozygous and homozygous mice; test: Formalin foot-pad procedure (formalin-induced hyperalgesia); assay type: in vivo, mouse; conditions: PO 120 minutes prior to testing, FIG. 4
Procedure: Male α2/δ1 R217A wild type, heterozygous, and homozygous mice, weighing 19-40 grams, were used for testing. Animals were maintained on a 12 hour light/dark cycle with food and water available ad libitum. Animals were food deprived overnight the day before testing. On test day, animals were acclimated to the observation chambers for approximately 60 min. The observation chambers were eight inch square boxes consisting of solid, acrylic plastic mirrors for the floor and 3 walls. The fourth wall was clear acrylic that allowed for observation. Animals were dosed PO with either vehicle or pregabalin, 120 minutes prior to testing at a dose volume 10 ml/kg. At test time, animals received a 25 μL injection of a 5% formalin solution in water in the plantar surface of the left hind foot. […] These behaviors were timed using a hand-held stopwatch and recorded at 5 min intervals. Data was analyzed by the two distinct phases of responding. Early phase responding included Minutes 0-10, and late phase responding included Minutes 11-45. The total time spent licking by drug-treated animals in each phase was compared to the total time spent licking by vehicle-treated animals.

[5] = system: α2/δ1 R217A wild type and homozygous mice; test: Tail Suspension Test (TST); assay type: in vivo, mouse; conditions: R217A mutant vs wildtype mice; dosed 120 minutes prior; FIG. 5
Procedure: Male α2/δ1 R217A wild type and homozygous mice, weighing 22-35 grams, were used for testing. Animals were maintained on a 12 hour light/dark cycle with food and water available ad libitum. Animals were food deprived overnight the day before testing. On test day, animals were placed by groups of 8 into holding cages to acclimate for sixty minutes prior to dosing. Vehicle or pregabalin was administered 120 minutes prior to testing at a dose volume of 10 mL/kg. At test time, a piece of transparent tape was placed around the distal portion of the tail. The tape was then attached to a hook connected to an electro-mechanical apparatus that recorded the amount of time a mouse moved and the force used during movement. The hook was located at the top of a 24×18 cm testing chamber. Animals were completely suspended in air approximately 5 cm off the floor of the chamber for six minutes. Mean time of struggling and force of movement were then calculated for each group of eight.
Animals are placed by groups of eight into holding cages to acclimate for thirty to sixty minutes prior to dosing. Treatments are generally administered 60 to 120 minutes prior to testing, although this also varies with specific compounds. At test time, a piece of scotch tape is placed around the distal portion of the tail. […]

[6] = system: R217A knock-in and wild-type mice; test: Chronic constriction injury (CCI)-induced static allodynia, von Frey hairs; assay type: in vivo, mouse; conditions: for efficacy in CCI-induced allodynia: 30-100mg/kg, p.o.; for effect on CCI-induced punctate allodynia: sub cutaneous 30-100mg/kg, FIG. 8
Source text: Animals were placed in an anaesthetic chamber and anaesthetised with a 2% isofluorane O2 mixture. The right hind thigh is shaved and swabbed with 1% iodine. Animals were then transferred to a homeothermic blanket for the duration of the procedure and anaesthesia maintained during surgery via a nose cone. The skin was cut along the line of the thigh bone. The common sciatic nerve was exposed at the middle of the thigh by blunt dissection through biceps femoris. Proximal to the sciatic trifurcation, about 5mm of nerve was freed by inserting forceps under the nerve and the nerve gently lifted out of the thigh. The forceps were gently opened and closed several times to aid clearance of the fascia from the nerve. Suture was pulled under the nerve using forceps and tied in a simple knot until slight resistance was felt and then double knotted. The procedure was repeated until 3 ligatures (4-0 silk) were tied loosely around the nerve with approx 1 mm spacing. The incision was closed in layers and the wound treated with topical antibiotics.
Animals were habituated to wire test cages prior to the assessment of allodynia. Static allodynia was evaluated by application of von Frey hairs (Stoelting, Wood Dale, Ill., U.S.A.) in ascending order of force ([…], 0.4, 0.6, 1.0, 1.5 and 2.0 g) to the plantar surface of hind paws. Each von Frey hair was applied to the paw for a maximum of 6 seconds, or until a withdrawal response occurred. Once a withdrawal response to a von Frey hair was established, the paw was re-tested, starting with the filament below the one that produced a withdrawal, and subsequently with the remaining filaments in descending force sequence until no withdrawal occurred. Each animal had both hind paws tested in this manner. The lowest amount of force required to elicit a response was recorded as paw withdrawal threshold (PWT) in grams. […]
(§1) Following drug administration PWT were re-assessed for up to 4 h. The static allodynia data is expressed as median force (g) required to induce a paw withdrawal in 6-7 animals per group (vertical bars represent 1st and 3rd quartiles) *P<0.05, **P<0.01***P<0.005 (Mann Whitney U test) from vehicle treated group at each time point.
as §1, with “It was examined whether pregabalin produced an anti-allodynic action in both the knock-in and wild-type mice. […] Baseline (BL) paw withdrawal thresholds (PWT) to von Frey hairs were assessed. Following” for “Following”

Row | Compound | responsiveness to anticonvulsant effects ([1]; FIG. 9) | minimally effective dose (MED), Vogel ([2]; 129S6/SvEv, shock 0.6 mA) | minimally effective dose (MED), Vogel ([2]; C57BL/6J, shock 0.4 mA) | minimally effective dose (MED), Vogel ([2]; C57 albino, shock 0.1 mA) | minimally effective dose (MED), Vogel ([2]; Hets, shock 0.4 mA) | minimally effective dose (MED), Vogel ([2]; Knockins, shock 0.7 mA) | anxiolytic-like effect / punished licking, Vogel [2] | minimally effective dose (MED), Vogel ([2]; Wild Type, shock 0.1 mA) | gabapentin binding to brain membranes [3] | efficacy on formalin-induced hyperalgesia [4] | potency in protecting against seizures ([1]; mutant mice vs wild-type, heterozygous or back-ground strains) | anticonvulsant effects ([1]; −/− mice as compared to +/+ mice, FIG. 9) | sensitivity to effects in MES ([1]; −/− mice vs +/+ mice, FIG. 9) | increase in punished responding @ 100, Vogel ([2]; Knockins, dose 100) | anxiolytic-like effect / punished licking, Vogel ([2]; listed as Pregabalin) | effect in Tail Suspension Test [5] | efficacy in CCI-induced allodynia ([6]; knock-in animals) | effect on CCI-induced punctate allodynia ([6]; knock-in mice) | efficacy in CCI-induced allodynia ([6]; wild type mice) | effect on CCI-induced punctate allodynia ([6]; wild type mice)
1 | CN1C(=O)CN=C(c2ccccc2)c2cc(Cl)ccc21 [diazepam] | fully responsive | inactive | 3.2 | 3.2 | 3.2 | inactive | Diazepam (+ control) failed to produce an anxiolytic-like effect in R217A knockins. Data suggests 129S6-parent strain's genotype may be responsible for pharmacological profile of diazepam | 3.2 |  |  |  |  |  |  |  |  |  |  |  | 
2 | NCC1(CC(=O)O)CCCCC1 [gabapentin, 1-(aminomethyl)cyclohexaneacetic acid] |  |  |  |  |  |  |  |  | reduced, or greatly abolished |  |  |  |  |  |  |  |  |  |  | 
3 | O=C1NC(=O)C(c2ccccc2)(c2ccccc2)N1 [phenytoin] | fully responsive |  |  |  |  |  |  |  |  |  |  |  |  |  |  |  |  |  |  | 
4 | CC(C)C[C@H](CN)CC(=O)O [pregabalin] |  | 32 | 10 | 10 | 10 | inactive | does not produce a statistically significant increase | 32 |  | reduced efficacy | less potent | reduced | less sensitive | non-significant | Pregabalin did not produce a significant anxiolytic-like effect in R217A knockins, and no evidence was obtained relating phenotype to particular parent strain | exerts its sedative and/or anxiolytic effect in TST through the α2/δ1 polypeptide | failed to demonstrate any efficacy | no effect | typical efficacy | significant blockade
